# Measured values: ChEMBL document CHEMBL1795203, “Synthesis and evaluation of highly potent GABA(A) receptor antagonists based on gabazine (SR-95531)” (Bioorg Med Chem Lett, 2011)
# Target: T1, GABA-A receptor; alpha-1/beta-2/gamma-2 (Homo sapiens, UniProt P14867+P18507+P47870)
# T1 sequence (P14867 whole entry): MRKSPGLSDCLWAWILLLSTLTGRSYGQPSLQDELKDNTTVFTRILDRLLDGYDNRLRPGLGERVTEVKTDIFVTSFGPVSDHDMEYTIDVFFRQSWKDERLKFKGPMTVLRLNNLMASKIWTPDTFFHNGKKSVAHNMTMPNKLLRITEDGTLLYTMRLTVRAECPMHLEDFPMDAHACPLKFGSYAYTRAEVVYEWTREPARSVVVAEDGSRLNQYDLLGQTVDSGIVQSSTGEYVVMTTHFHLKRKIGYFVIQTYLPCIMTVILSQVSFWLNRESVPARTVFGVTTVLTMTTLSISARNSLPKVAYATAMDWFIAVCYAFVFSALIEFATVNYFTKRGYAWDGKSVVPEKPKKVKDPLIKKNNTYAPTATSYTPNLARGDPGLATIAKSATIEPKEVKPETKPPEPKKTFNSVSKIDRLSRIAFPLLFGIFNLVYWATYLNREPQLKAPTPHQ
# T1 sequence (P47870 whole entry): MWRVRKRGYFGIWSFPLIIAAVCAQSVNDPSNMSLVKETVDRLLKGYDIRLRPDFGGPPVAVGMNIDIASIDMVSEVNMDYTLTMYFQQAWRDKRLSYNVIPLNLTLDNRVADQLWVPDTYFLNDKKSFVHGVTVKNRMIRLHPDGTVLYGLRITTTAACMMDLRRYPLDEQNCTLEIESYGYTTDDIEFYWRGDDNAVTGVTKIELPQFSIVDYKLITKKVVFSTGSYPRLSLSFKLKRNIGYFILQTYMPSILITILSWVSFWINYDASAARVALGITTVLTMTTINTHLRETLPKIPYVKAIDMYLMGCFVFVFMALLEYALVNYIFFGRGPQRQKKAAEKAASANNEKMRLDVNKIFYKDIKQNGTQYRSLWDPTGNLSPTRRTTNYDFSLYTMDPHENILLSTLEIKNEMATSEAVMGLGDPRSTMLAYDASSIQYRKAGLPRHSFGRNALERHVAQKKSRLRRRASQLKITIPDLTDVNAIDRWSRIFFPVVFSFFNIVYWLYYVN
# T1 sequence (P18507 whole entry): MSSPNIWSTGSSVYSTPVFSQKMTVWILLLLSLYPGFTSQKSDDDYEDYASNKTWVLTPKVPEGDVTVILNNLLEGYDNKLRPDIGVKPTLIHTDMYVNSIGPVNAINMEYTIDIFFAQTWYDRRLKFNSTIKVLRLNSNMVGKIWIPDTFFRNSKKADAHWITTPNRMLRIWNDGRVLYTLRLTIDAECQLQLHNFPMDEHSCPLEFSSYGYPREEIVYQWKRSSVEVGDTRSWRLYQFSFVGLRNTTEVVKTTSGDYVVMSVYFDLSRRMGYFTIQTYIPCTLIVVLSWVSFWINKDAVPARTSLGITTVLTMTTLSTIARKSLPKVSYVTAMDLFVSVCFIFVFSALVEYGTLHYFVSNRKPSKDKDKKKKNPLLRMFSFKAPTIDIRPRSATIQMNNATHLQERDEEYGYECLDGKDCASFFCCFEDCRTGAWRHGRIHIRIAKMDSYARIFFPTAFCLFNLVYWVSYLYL
# Assay: Antagonist activity at human recombinant GABA A receptor alpha1beta2gamma2S expressed in HEK293 cells assessed as inhibition of GABA-induced current by patch clamp electrophysiology
# Format: functional, cell-based
row,SMILES,IC50
1,COc1cccc(COc2ccc(-c3ccc(=N)n(CCCC(=O)O)n3)cc2)c1,7 nM
2,C#CCOc1ccc(-c2ccc(=N)n(CCCC(=O)O)n2)cc1,40 nM
3,COc1ccc(-c2ccc(=N)n(CCCC(=O)O)n2)cc1 [GABAZINE],349 nM

# More lines, in order of falling IC50, values ahead:
row,IC50,SMILES
1,11 nM,N=c1ccc(-c2ccc(OCc3ccccc3)cc2)nn1CCCC(=O)O
2,3 nM,N=c1ccc(-c2ccc(OCc3cccc([N+](=O)[O-])c3)cc2)nn1CCCC(=O)O
